Measurements reported in PMC3382786, “Anti-Hyperglycemic Effect of Chebulagic Acid from the Fruits of Terminalia chebula Retz” (International Journal of Molecular Sciences, 2012).
Values after ≈ are worked out from the molar mass of the structure shown.

Legend:
[1] = target: T1, rat intestinal α-glucosidase (maltase activity); assay: maltose hydrolysis, liberated glucose by glucose oxidase; assay type: biochemical; settings: maltose 3.5 mM stock (0.35 of 0.5 mL); 0.1 M potassium phosphate pH 6.3; 37 °C, 15 min; crude enzyme
T1 construct: gene Mgam; crude native enzyme solution from rat intestinal acetone powder (Sigma-Aldrich); maltose hydrolysis; not purified

[2] = tested on: T2, Caco-2 maltase (maltose-hydrolysis activity of α-glucosidase); assay: maltose hydrolysis on Caco-2 monolayer, liberated glucose by glucose oxidase; assay type: cell-based, Homo sapiens; settings: 28 mM maltose in PBS; 37 °C, 2 h; reversible
T2 construct: gene SI; native enzyme on the apical side of differentiated Caco-2 monolayer

Which IC50 [1] does the source give for O=C(O)C[C@@H]1C(=O)O[C@H]2[C@@H]3OC(=O)c4cc(O)c(O)c(O)c4-c4c(cc(O)c(O)c4O)C(=O)OC[C@H]2O[C@@H](OC(=O)c2cc(O)c(O)c(O)c2)[C@@H]3OC(=O)c2cc(O)c(O)c3c2[C@H]1[C@H](O)C(=O)O3 [chebulagic acid] here?
The IC50 was 37 µg/mL (≈ 38.8 µM).

And the “% inhibition at 0.5 mM/well” value [2]?
The value was 73%.
